PubChem BioAssay (NCI)
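Grown in 96-well plates, cells were treated for 48 hours with each compound at five concentrations. Insufficient inhibition: endpoint recorded as highest concentration tested. GI50 = concentration required for 50% inhibition of growth. At the TGI there is no net growth.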

Columns and labels:
Assay in all cases: inhibition of tumour cell growth, NCI panel, 48 h
HOP-92 NSCLC = tested on: HOP-92 NSCLC
UO-31 renal = tested on: UO-31 renal
A549 NSCLC = tested on: A549 NSCLC
SF-539 CNS = tested on: SF-539 CNS
TK-10 renal = tested on: TK-10 renal
OVCAR-5 ovarian = tested on: OVCAR-5 ovarian
NCI-H460 lung = tested on: NCI-H460 lung
HCT-15 colon = tested on: HCT-15 colon
SN12C renal = tested on: SN12C renal
UACC-257 melanoma = tested on: UACC-257 melanoma

Row | SMILES | GI50 (HOP-92 NSCLC) [µM] | TGI (HOP-92 NSCLC) [µM] | GI50 (UO-31 renal) [µM] | TGI (UO-31 renal) [µM] | GI50 (A549 NSCLC) [µM] | TGI (A549 NSCLC) [µM] | GI50 (SF-539 CNS) [µM] | TGI (SF-539 CNS) [µM] | GI50 (TK-10 renal) [µM] | TGI (TK-10 renal) [µM] | GI50 (OVCAR-5 ovarian) [µM] | TGI (OVCAR-5 ovarian) [µM] | GI50 (NCI-H460 lung) [µM] | TGI (NCI-H460 lung) [µM] | GI50 (HCT-15 colon) [µM] | TGI (HCT-15 colon) [µM] | GI50 (SN12C renal) [µM] | TGI (SN12C renal) [µM] | GI50 (UACC-257 melanoma) [µM] | TGI (UACC-257 melanoma) [µM]
1 | C[C@@H]1O[C@@H](O[C@H]2C[C@@H](O)[C@]3(CO)C4C(CC[C@]3(O)C2)[C@@]2(O)CC[C@H](C3=CC(=O)OC3)[C@@]2(C)C[C@H]4O)[C@H](O)[C@H](O)[C@H]1O (stereo partly specified) | 0.0597 | 0.25 | 0.0165 | 0.0618 | 0.00907 | 0.0172 | 0.0185 | 0.0599 | 0.0148 | 0.0384 | 0.0606 | 0.127 | 0.0133 | 0.0376 | 0.0372 | 0.114 | 0.0178 | 0.0844 | 0.0626 | 0.129
2 | COc1cc2c(-c3nc4cc(Cl)c(F)cc4s3)cc(=O)oc2c(C)c1OC | 0.498 | 2.16 | 0.154 | 0.339 |  |  | 0.183 | 0.379 | 1.96 | 3.47 | 1.8 | 3.39 | 2.11 | 4.61 |  |  |  |  | 1.38 | 2.89
3 | CCc1nc2c(O)ccc(O)c2nc1C |  | 13.7 |  | 33.5 |  | 44.5 |  | 31.4 |  | 37.1 |  | 33.5 |  | 36.1 |  | 30.6 |  | 29.6 |  | 31.4
4 | O=C1Nc2ccc(F)c3c(OCCO)cc(-c4ccc[nH]4)c1c23 | 0.908 | 5.4 | 0.632 | 4.05 | 1.21 | 8.57 | 2.19 | 6.12 | 1.41 | 6.42 | 2.35 | 10 | 0.927 | 5.14 | 0.957 | 7.87 | 1.11 | 9.83 | 4.94 | 17.9
5 | C[C@]12CC[C@H](O)CC1=CC[C@@H]1[C@@H]2CC[C@]2(C)C(=O)/C(=C/c3cccc(OCCCn4ccnc4)c3)C[C@@H]12 | 12.6 | 32.3 | 16 | 35.1 | 13.8 | 28.8 | 18.7 | 35.5 | 27.9 | 72 | 18.1 | 34.8 | 19.6 | 43.2 | 16.8 | 40.4 | 28.7 | 88.3 |  | 
6 | COC1=CC(c2ccc[nH]2)=N/C1=C\c1[nH]c(C)c(C(=O)CCC(=O)Oc2ccc3c(c2)CCC2C3CC[C@]3(C)C(=O)CC[C@@H]23)c1C (stereo partly specified) | 2.09 | 16.5 | 3.95 | 30 | 2.65 | > 100 | 14.3 | > 100 | 25.2 | > 92 | 7.88 | > 81.6 | 3.07 | > 100 | 2.52 | > 61.8 | 5.23 | > 100 | 97.6 | > 100
7 | COCCNCC(O)Cn1c2ccc(Cl)cc2c2cc(Cl)ccc21 (stereo unspecified) | 1.57 | 5.17 | 1.75 | 4.17 | 1.79 | 3.74 | 1.8 | 3.43 | 1.79 | 3.37 | 2.15 | 5.23 | 1.86 | 3.6 | 2.06 | 5 | 1.94 | 4.46 | 1.68 | 3.35
8 | COc1ccc(C2C3=C(NC(=O)C2C#N)c2ccc4ccccc4c2OCC3)cc1 (stereo unspecified) | 11.4 | 43.4 | 64.1 | > 100 | 38.9 | > 100 | 12.9 | 28 | 29.5 | 76.8 | > 100 | > 100 | 66.2 | > 100 | > 100 | > 100 | 23.9 | 56.5 | 36.5 | 82.8
9 | CCOC(C)OCC#CCCBr (stereo unspecified) |  |  |  | > 100 |  | > 100 |  | > 100 |  | > 100 |  | > 100 |  | > 100 |  | > 100 |  | > 100 |  | > 100
10 | COc1ccc(-c2cc3cccc(OC)c3c(=O)o2)cc1OC | 37.2 | > 100 | 95.4 | > 100 | 59.4 | > 100 | 0.559 | 22.9 | > 100 | > 100 | 85.5 | > 100 | 31.1 | > 100 | 23.4 | > 100 | 19.7 | > 100 | 92.8 | > 100
11 | O=C(CC12CC3CC(CC(C3)C1)C2)NCCOCCOCCNC(=O)c1cc2c(o1)C(=O)c1ccccc1C2=O | 2.26 | 6.1 | 1.5 | 3.09 | 0.22 | 0.51 | 1.14 | 2.37 | 3.06 | 5.27 | 1.69 | 3.09 | 0.317 | 1 | 0.867 | 2.39 | 0.595 | 1.87 | 1.14 | 2.43
12 | O=C1CCC2(c3ccc(F)cc3)Nc3ccccc3N12 (stereo unspecified) |  | > 100 |  | > 100 |  | > 100 |  | > 100 |  | > 100 |  | > 100 |  | > 100 |  | > 100 |  | > 100 |  | > 100
13 | COc1ccc2c(c1)O/C(=C\c1cccc(OCC(=O)Nc3nc4ccccc4s3)c1)C2=O | 2.65 | 18.4 | 1.53 | 3 | 39.8 | > 100 | 24.7 | > 84.5 | > 54.3 | > 100 | > 84.3 | > 100 | > 64.4 | > 100 | 13.9 | > 100 | 2.82 | > 100 | > 100 | > 100
